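In this assay, cells in 96-well plates receive the compound at five concentrations for 48 hours. Endpoints are linearly interpolated between the surrounding concentrations. The concentration for full growth arrest is given as TGI.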
What was measured:
Experiment in all cases: growth of human tumour cells (NCI), 48 h
EKVX NSCLC = test system: EKVX NSCLC
HS 578T breast = test system: HS 578T breast
T-47D breast = test system: T-47D breast
SNB-19 CNS = test system: SNB-19 CNS
KM12 colon = test system: KM12 colon
OVCAR-3 ovarian = test system: OVCAR-3 ovarian
CCRF-CEM leukemia = test system: CCRF-CEM leukemia
NCI-H460 lung = test system: NCI-H460 lung
UO-31 renal = test system: UO-31 renal
HL-60(TB) leukemia = test system: HL-60(TB) leukemia
OVCAR-8 ovarian = test system: OVCAR-8 ovarian
MDA-MB-435 = test system: MDA-MB-435
RXF 393 renal = test system: RXF 393 renal
HT29 colon = test system: HT29 colon
SF-539 CNS = test system: SF-539 CNS
SR leukemia = test system: SR leukemia
SF-268 CNS = test system: SF-268 CNS
NCI-H522 lung = test system: NCI-H522 lung
MDA-N = test system: MDA-N
NCI-H23 lung = test system: NCI-H23 lung
A549 NSCLC = test system: A549 NSCLC
OVCAR-4 ovarian = test system: OVCAR-4 ovarian
TK-10 renal = test system: TK-10 renal
U251 CNS = test system: U251 CNS
BT-549 breast = test system: BT-549 breast
786-0 renal = test system: 786-0 renal
K-562 leukemia = test system: K-562 leukemia
DU-145 prostate = test system: DU-145 prostate
NCI-H226 lung = test system: NCI-H226 lung
ACHN renal = test system: ACHN renal
OVCAR-5 ovarian = test system: OVCAR-5 ovarian
IGROV1 ovarian = test system: IGROV1 ovarian
SF-295 CNS = test system: SF-295 CNS
SNB-75 CNS = test system: SNB-75 CNS
MOLT-4 leukemia = test system: MOLT-4 leukemia
M14 melanoma = test system: M14 melanoma
SK-MEL-5 melanoma = test system: SK-MEL-5 melanoma
UACC-257 melanoma = test system: UACC-257 melanoma
CAKI-1 renal = test system: CAKI-1 renal
SK-MEL-28 melanoma = test system: SK-MEL-28 melanoma
A498 renal = test system: A498 renal
COLO 205 colon = test system: COLO 205 colon
MCF7 breast = test system: MCF7 breast
PC-3 prostate = test system: PC-3 prostate
MALME-3M melanoma = test system: MALME-3M melanoma
HCC-2998 colon = test system: HCC-2998 colon
HOP-92 NSCLC = test system: HOP-92 NSCLC
HCT-15 colon = test system: HCT-15 colon
LOX IMVI melanoma = test system: LOX IMVI melanoma
UACC-62 melanoma = test system: UACC-62 melanoma
SK-MEL-2 melanoma = test system: SK-MEL-2 melanoma
MDA-MB-231 breast = test system: MDA-MB-231 breast
SN12C renal = test system: SN12C renal
HCT-116 colon = test system: HCT-116 colon
HOP-62 NSCLC = test system: HOP-62 NSCLC
SK-OV-3 ovarian = test system: SK-OV-3 ovarian
NCI/ADR-RES ovarian = test system: NCI/ADR-RES ovarian

SMILES: COc1cc(/C=N/Nc2nnc3c4ccccc4c4ncccc4c3n2)cc(OC)c1OC
- TGI (EKVX NSCLC): > 10 µM
- TGI (HS 578T breast): > 10 µM
- TGI (T-47D breast): 4.11 µM
- TGI (SNB-19 CNS): > 10 µM
- TGI (KM12 colon): > 10 µM
- TGI (OVCAR-3 ovarian): > 10 µM
- TGI (CCRF-CEM leukemia): > 10 µM
- TGI (NCI-H460 lung): 5.68 µM
- TGI (UO-31 renal): > 10 µM
- TGI (HL-60(TB) leukemia): > 10 µM
- TGI (OVCAR-8 ovarian): 6.58 µM
- TGI (MDA-MB-435): > 10 µM
- TGI (RXF 393 renal): > 10 µM
- TGI (HT29 colon): 5.4 µM
- TGI (SF-539 CNS): > 10 µM
- TGI (SR leukemia): > 10 µM
- TGI (SF-268 CNS): > 10 µM
- TGI (NCI-H522 lung): 5.75 µM
- TGI (MDA-N): 8.09 µM
- TGI (NCI-H23 lung): 8.25 µM
- TGI (A549 NSCLC): > 10 µM
- TGI (OVCAR-4 ovarian): > 10 µM
- TGI (TK-10 renal): > 10 µM
- TGI (U251 CNS): > 10 µM
- TGI (BT-549 breast): > 10 µM
- TGI (786-0 renal): > 10 µM
- TGI (K-562 leukemia): > 10 µM
- TGI (DU-145 prostate): > 10 µM
- TGI (NCI-H226 lung): 9.12 µM
- TGI (ACHN renal): > 10 µM
- TGI (OVCAR-5 ovarian): > 10 µM
- TGI (IGROV1 ovarian): > 10 µM
- TGI (SF-295 CNS): > 10 µM
- TGI (SNB-75 CNS): > 10 µM
- TGI (MOLT-4 leukemia): > 10 µM
- TGI (M14 melanoma): > 10 µM
- TGI (SK-MEL-5 melanoma): > 10 µM
- TGI (UACC-257 melanoma): 8.23 µM

SMILES: CC(=O)c1cc2ccccc2n(O)c1=N
- TGI (CAKI-1 renal): > 100 µM
- TGI (SK-MEL-28 melanoma): > 100 µM
- TGI (EKVX NSCLC): > 100 µM
- TGI (HS 578T breast): > 100 µM
- TGI (T-47D breast): > 100 µM
- TGI (A498 renal): > 100 µM
- TGI (KM12 colon): > 100 µM
- TGI (COLO 205 colon): > 100 µM
- TGI (MCF7 breast): > 100 µM
- TGI (PC-3 prostate): > 100 µM
- TGI (MALME-3M melanoma): > 100 µM
- TGI (OVCAR-3 ovarian): > 100 µM
- TGI (HCC-2998 colon): > 100 µM
- TGI (CCRF-CEM leukemia): > 100 µM
- TGI (NCI-H460 lung): > 100 µM
- TGI (HL-60(TB) leukemia): > 100 µM
- TGI (HOP-92 NSCLC): > 100 µM
- TGI (OVCAR-8 ovarian): > 100 µM
- TGI (MDA-MB-435): > 100 µM
- TGI (RXF 393 renal): > 100 µM
- TGI (HT29 colon): > 100 µM
- TGI (HCT-15 colon): > 100 µM
- TGI (LOX IMVI melanoma): > 100 µM
- TGI (SF-539 CNS): > 100 µM
- TGI (SR leukemia): > 100 µM
- TGI (SF-268 CNS): > 100 µM
- TGI (UACC-62 melanoma): > 100 µM
- TGI (NCI-H522 lung): > 100 µM
- TGI (SK-MEL-2 melanoma): > 100 µM
- TGI (MDA-N): > 100 µM
- TGI (NCI-H23 lung): > 100 µM
- TGI (A549 NSCLC): > 100 µM
- TGI (MDA-MB-231 breast): > 100 µM
- TGI (OVCAR-4 ovarian): > 100 µM
- TGI (TK-10 renal): > 100 µM
- TGI (SN12C renal): > 100 µM
- TGI (U251 CNS): > 100 µM
- TGI (786-0 renal): > 100 µM
- TGI (HCT-116 colon): > 100 µM
- TGI (DU-145 prostate): > 100 µM
- TGI (HOP-62 NSCLC): > 100 µM
- TGI (NCI-H226 lung): > 100 µM
- TGI (SK-OV-3 ovarian): > 100 µM
- TGI (ACHN renal): > 100 µM
- TGI (OVCAR-5 ovarian): > 100 µM
- TGI (IGROV1 ovarian): > 100 µM
- TGI (SF-295 CNS): > 100 µM
- TGI (MOLT-4 leukemia): > 100 µM
- TGI (M14 melanoma): > 100 µM
- TGI (SK-MEL-5 melanoma): > 100 µM
- TGI (UACC-257 melanoma): > 100 µM
- TGI (NCI/ADR-RES ovarian): > 100 µM
